Measurements published in patent publication US20240408112A1, “METHOD FOR PREVENTING OR TREATING PULMONARY ARTERIAL HYPERTENSION BY USING 7-DEHYDROCHOLESTEROLS OR SALTS, OXIDES, METABOLITES, OR DERIVATIVES THEREOF” (EXCELSIOR PHARMATECH LABS., priority 2023, published 2024).

Columns and labels:
[1] = system: TGF-β-stimulated PAI-1 promoter activity; test: TGF-β stimulated Pai-1 luciferase assay in MLECs-clone32 cells; type: cell-based; settings: TGF-β 50 pM, 4 hours, read-out: IC50 value of compound inhibiting TGF-β-stimulated Pai-1 luciferase activity (%)
Excerpt: TGF-β Stimulated Pai-1 Luciferase Assay
MLECs-clone32 cell line was used to measure the impact of different compounds on the downstream gene, plasminogenactivator inhibitor 1 (PAI-1) performance stimulated by TGF-β. MLECs-clone32 is an expression construct that is stably transfected for the Mv1Lu cell line, and the expression construct PAI-1 Luciferase contains a truncated (PAI-1) promoter fused to the firefly luciferase reporter gene^11,12. The activity stimulated by the truncated PAI-I promoter was quantified by using a luciferase assay. The luciferase activity stimulated by TGF-β in cells without compound treatment was set as 100%, and the effects of each compound on TGF-β-stimulated PAI-I promoter activity were compared. The steps for measuring Pai-1 luciferase activity include using a 96-well plate (DMEM medium containing 10% FBS), seeding each well with 1.5×10^5 cells, and culturing in an incubator overnight. After discarding the medium the next day, cells in DMEM medium with or without the addition of test compounds were treated with recombinant TGF-β (50 pM) and allowed to react in a 37° C. incubator for 4 hours. The cell culture medium was aspirated, washed with PBS, and the activity of Pai-1 luciferase was evaluated by luciferase assay.

[2] = system: PAH rat pulmonary artery smooth muscle cells (rPASMC MCT); test: BrdU cell proliferation assay, 10% FBS, rPASMC MCT; type: cell-based
Description: (§1) BrdU (5-bromo-2-deoxyuridine) cell proliferation assay (BrdU assay)
(§2) A 48-well plate was used, and 1.5×10^4 cells were implanted in each well. After 24 hours, the medium was changed to serum-free culture medium and synchronized for 24 hours. A 2-fold concentration of the compound in serum-free culture medium is prepared and the cells were pretreated for 1 hour. Then, the same volume of culture medium containing 20% fetal bovine serum (FBS) was added to dilute the compound. The final concentration was 10% FBS culture medium and 1 times the concentration of the compound. In the experimental group that added TGF-β, the same volume of TGF-β culture medium containing 10 ng/mL was added, with a final concentration of 5 ng/mL TGF-β and 1 times the concentration of the compound, and in the experimental group added with TGF-β, the entire process was conducted in culture medium containing 0.1% serum. Then, BrdU reagent was added about 6 hours later, and the cells were collected the next day for enzyme-linked immunosorbent assay (ELISA) analysis, the compound treatment time was about 24 hours, and the BrdU treatment time was about 18 hours.
(§3) Five compounds to be tested were screened by cell survival assay (MTT assay) and BrdU (5-bromo-2-deoxyuridine) cell proliferation assay, and the information of these compounds was listed in Table 1 below. Tables 2 and 3 respectively listed the growth inhibitions of on human pulmonary artery endothelial cells (hPAEC), human pulmonary artery smooth muscle cells (hPASMC), normal rat pulmonary artery smooth muscle cells (rPASMC, as the control group, represented by “CON”), and rat pulmonary artery smooth muscle cells (represented by “MCT”), by the five compounds to be tested under the conditions of 10% FBS, 0.1% FBS and 100 pM TGF-β.

[3] = system: monocrotaline induced pulmonary hypertension rat; test: Monocrotaline-induced pulmonary arterial hypertension rat model, Example 2 (7-DHC, 042); type: in vivo; settings: for Arterial gas analysis pH value, PaO2 and PaCO2, in words: between groups CON, MCT and treated; for Base excess (BE) value: MCT group −5.5, normal −2 to +2
Excerpt: Pulmonary arterial hypertension animal experimental model
The present disclosure utilizes injection of monocrotaline to induce symptoms of pulmonary arterial hypertension in rats to establish a pulmonary arterial hypertension animal experimental model suitable for screening test drugs.
The diagnostic method of clinical pulmonary arterial hypertension standards is right heart catheterization, which is defined as mean pulmonary arterial pressure (mPAP) greater than or equal to 20 mmHg. The diagnostic criteria for pulmonary arterial hypertension, in addition to an increase in mean pulmonary arterial pressure, need to be combined with pulmonary vascular resistance (PVR) greater than 3 Wood unit. The right ventricle pressure (RVP) and systemic mean blood pressure (mbp) in rats with pulmonary arterial hypertension were measured by Millar Model PCU200 pressure system, and the heart rate (HR) was also monitored at the same time. After measuring the hemodynamic data, the arterial blood was extracted from the carotid artery of the pulmonary arterial hypertension rat, and the Abbott blood oximeter (i-STAT) combined with Abbott's special chip cartridge (i-STAT Cartridge G3+) was used to measure arterial gas analysis data such as pH, PaO2, PaCO2, HCO3 and base excess (BE) value in quantitative whole blood samples. The normal pH value is between 7.35 and 7.45, and the pH value indicates whether the experimental animal has the condition of acidemia, alkalemia, acidosis or alkalosis. The normal value of PaO2 is between 80 and 100 mmHg, which reflects the effectiveness of gas exchange (ventilation/perfusion). The normal value of PaCO2 is between 35 and 45 (such as 38 and 42) mmHg, which can evaluate the effectiveness of alveolar ventilation. The acid produced by food, tissue decomposition, inflammation and hypoxia rely on the lungs to excrete volatile acid CO2 (short-term) and the bicarbonate (HCO3^−) produced by the kidneys (long-term) to neutralize non-volatile acids, while the normal value of bicarbonate hydrogen radical (HCO3^−) is between 22 and 26 meq/L. BE is the base excess value, its normal value ranges from −2 to +2, the negative value represents the degree of alkali ion deficiency in the blood, a negative BE value (−) that is too high indicates metabolic acidosis, and a positive value (+) that is too high is metabolic alkalosis. At the end of the experiment, the rats were sacrificed and their hearts were removed and the left and right ventricles were separated and weighed (RV)/(S)+(LV).
Monocrotaline (MCT) was utilized to induce pulmonary hypertension rat animal model, the TGF-β receptor inhibitor 7-DHC (039) and compound No. 042 were tested via intraperitoneal (IP) administration, and the physiological parameters of the animals were collected, wherein includes measuring right ventricle pressure, systemic arterial pressure, heartbeat and right ventricle hypertrophy, as well as observing and analyzing the pulmonary artery thickening and blood oxygenation levels through pathological sections of lung tissue. Specifically, 7-DHC (039) was divided into two groups with a dosage of 10 mg/kg or 20 mg/kg, the dosage of group 042 was 50 mg/kg, each dosage group has 3 rats (n=3), while the control group (CON) and the pulmonary arterial hypertension rat group (MCT) had 6 rats (n=6) respectively.

[4] = system: PAH rat pulmonary artery smooth muscle cells (rPASMC MCT); test: BrdU cell proliferation assay, 0.1% FBS, 100 pM TGF-β, rPASMC MCT; type: cell-based; settings: 100 pM TGF-β
Description: as §1, §2, §3

CC(C)CCCC(C)C1CCC2C3=CC=C4CC(O)CCC4(C)C3CCC21C (stereo not shown) [Code 039, 7-DHC]
IC50 [1]: 15.5 µM | EC50 ([2]; Rattus norvegicus, read-out: EC50 (concentration for 50% of maximal effect)): 37 µM | Inhibition of cell growth (in words) ([2]; rPASMC MCT4, 10% FBS, FIG. 2): significant inhibitory effects | Arterial gas analysis pH value, PaO2 and PaCO2, in words ([3]; 10 mg/kg IP): did not show any significant differences | Thickness of the pulmonary artery blood vessels (medial wall thickness), in words ([3]; 10 mg/kg IP, p<0.001, vs MCT rats (exceeded 55%)): significantly reduced | Base excess (BE) value ([3]; 10 mg/kg IP): −2 | Animal survival status ([3]; 20 mg/kg IP, 23rd day after monocrotaline induction): had died | Arterial gas analysis pH value, PaO2 and PaCO2, in words ([3]; 20 mg/kg IP): did not show any significant differences | Base excess (BE) value ([3]; 20 mg/kg IP): 0 | Systemic blood pressure and heartbeat, in words ([3]; 10 or 20 mg/kg IP): did not reduce | Right ventricle pressure (RVP), in words ([3]; 10 or 20 mg/kg IP, vs MCT rats (28 mmHg)): can be reduced | EC50 ([4]; Rattus norvegicus, MCT (PAH rPASMC), 0.1% FBS, read-out: EC50): 20 µM | Inhibition of cell growth (in words) ([4]; rPASMC MCT2, 0.1% FBS, 25 μM, FIG. 3): significant inhibitory effects
